The results in this text go back to US8980848B2, “Flavonoid dimers and their use” (The Hong Kong Polytechnic University, priority 2010, dated 2015).

In general, IC50 refers to the concentration that inhibits the measured activity by half. The low end stands for greater potency in that assay, the high end for weaker potency in that assay. In general, melting point refers to the temperature, or range, at which the solid turns liquid. In general, EC50 refers to the midpoint of the concentration-response curve.

Each structure is given as a SMILES string.

The nature of data set [1]: Tumor cell line cytotoxicity of flavonoid dimers, LCC6MDR. The class given is cell-based, human. Particulars: human, LCC6MDR cells, IC50 of compound alone. The essentials: (§1)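 LCC6, LCC6MDR and L929 cells seeded at 1×10^4 cells/well and exposed to graded doses of flavonoid dimers. Incubation 72 hrs at 37° C., 5% CO2. Read-out: % survivors.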
Data set [2] can be described thus: Cytotoxicity of flavonoid dimers, L929 mouse fibroblast. In kind it is cell-based. Particulars: mouse, L929 fibroblast cells, IC50 of compound alone, 72 hrs, mouse fibroblast. Put shortly:
as §1

The next data set has as its target Pgp (LCC6MDR cells) (Homo sapiens, UniProt P08183). Put plainly: Cell proliferation assay: Pgp-modulating activity, reversal of anticancer drug resistance in LCC6MDR cells. Particulars: for RF (Relative Fold), cpd at 0.5 μM: RF = (IC50 without modulator)/(IC50 with 0.5 μM modulator); for RF (Relative Fold), cpd at 0.5 μM / RF (Relative Fold), cpd at 1 μM: paclitaxel; for RF (Relative Fold), cpd at 0.5 μM / EC50 / RF (Relative Fold), cpd at 1 μM: LCC6MDR; for EC50: EC50 of compounds for reversing anticancer drug resistance (nM); for Therapeutic index: IC50 of compounds for L929/EC50 of compounds for lowering paclitaxel drug resistance; for RF (Relative Fold), cpd at 1 μM: RF = (IC50 without modulator)/(IC50 with 1.0 μM modulator).

The nature of data set [3]: Tumor cell line cytotoxicity of flavonoid dimers, LCC6. In kind it is cell-based, human. Particulars: human, LCC6 cells, IC50 of compound alone. Put shortly: as §1

Pgp (LCC6MDR cells), sequence (P08183 whole entry): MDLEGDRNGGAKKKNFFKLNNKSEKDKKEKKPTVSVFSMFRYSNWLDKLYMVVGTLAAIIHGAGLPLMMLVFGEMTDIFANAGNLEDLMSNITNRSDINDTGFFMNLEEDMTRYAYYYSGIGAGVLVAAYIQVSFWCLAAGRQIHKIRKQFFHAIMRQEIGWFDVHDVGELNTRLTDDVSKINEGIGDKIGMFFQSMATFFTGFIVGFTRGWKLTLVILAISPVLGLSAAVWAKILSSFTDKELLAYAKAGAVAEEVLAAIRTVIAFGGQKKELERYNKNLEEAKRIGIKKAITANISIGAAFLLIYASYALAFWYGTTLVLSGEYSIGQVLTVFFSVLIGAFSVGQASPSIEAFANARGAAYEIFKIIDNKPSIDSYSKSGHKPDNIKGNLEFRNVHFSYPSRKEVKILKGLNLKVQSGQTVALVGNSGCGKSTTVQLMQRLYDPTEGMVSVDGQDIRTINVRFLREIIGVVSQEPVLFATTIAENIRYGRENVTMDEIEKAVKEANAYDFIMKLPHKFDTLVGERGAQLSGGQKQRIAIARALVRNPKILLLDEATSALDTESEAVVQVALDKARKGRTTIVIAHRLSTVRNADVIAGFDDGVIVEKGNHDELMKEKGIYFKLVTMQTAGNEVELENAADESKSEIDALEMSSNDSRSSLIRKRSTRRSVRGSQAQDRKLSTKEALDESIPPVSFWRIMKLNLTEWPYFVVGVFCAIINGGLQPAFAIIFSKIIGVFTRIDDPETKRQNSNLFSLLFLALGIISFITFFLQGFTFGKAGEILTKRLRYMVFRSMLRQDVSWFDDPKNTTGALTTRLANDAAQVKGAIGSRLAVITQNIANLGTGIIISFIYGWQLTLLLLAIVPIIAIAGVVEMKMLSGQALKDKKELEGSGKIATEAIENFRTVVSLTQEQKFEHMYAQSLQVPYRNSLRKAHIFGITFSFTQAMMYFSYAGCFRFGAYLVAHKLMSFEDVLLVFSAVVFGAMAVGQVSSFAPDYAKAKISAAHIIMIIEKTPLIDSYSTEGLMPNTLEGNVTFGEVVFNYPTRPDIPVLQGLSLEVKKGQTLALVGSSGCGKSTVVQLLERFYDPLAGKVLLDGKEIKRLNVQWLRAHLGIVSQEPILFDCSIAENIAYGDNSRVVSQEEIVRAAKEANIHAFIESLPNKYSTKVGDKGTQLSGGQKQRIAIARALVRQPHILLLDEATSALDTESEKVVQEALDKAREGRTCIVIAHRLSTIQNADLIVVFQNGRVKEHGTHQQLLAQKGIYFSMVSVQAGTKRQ
Protocol for Pgp (LCC6MDR cells): Cell Proliferation Assay. 6,000 cells of LCC6 or LCC6MDR and anticancer drugs (paclitaxel, vinblastine, vincristine, doxorubicin and mitoxantrone) were mixed with or without modulators to a final volume of 200 μL in each well of 96-well plates. […] The plates were then incubated for 5 days at 37° C. […] IC50 values were calculated from the dose-response curves of MTS assays (Prism 4.0).

In turn, `O=c1cc(-c2ccc(OCCOCCN(CCOCCOc3ccc(-c4cc(=O)c5ccccc5o4)cc3)Cc3ccc(F)c(F)c3)cc2)oc2ccccc12` [Compound 38, 1,13-Bis[4′-(4H-chromen-4-on-2-yl)phenyl]-7-(3,4-difluorobenzyl)-1,4,10,13-tetraoxa-7-azamidecane] registered a melting point of 96 to 98 °C. For the same compound, the IC50 at 72 h in data set [1] came out at 33.6 ± 4.3 µM. The compound further gave an IC50 at 72 h in data set [2] of 42.2 ± 2.1 µM. In addition, the “RF (Relative Fold), cpd at 0.5 μM” value at Pgp (LCC6MDR cells) is recorded as “(49.3)”. Moreover, in data set [3], the concentration for half-maximal inhibition (IC50) at 72 h is 32.5 ± 11 µM.

Compound `O=c1cc(-c2ccc(OCCOCCN(CCOCCOc3ccc(-c4cc(=O)c5ccccc5o4)cc3)Cc3ccc(F)cc3)cc2)oc2ccccc12` [Compound 34, 1,13-Bis[4′-(4H-chromen-4-on-2-yl)phenyl]-7-(4-fluorobenzyl)-1,4,10,13-tetraoxa-7-azamidecane] returned a melting point of 119 to 122 °C. The same compound registered an IC50 at 72 h in data set [1] of more than 83 µM. This compound showed an IC50 at 72 h in data set [2] of 19.7 µM. In addition, at Pgp (LCC6MDR cells) (Paclitaxel), the 50% effective concentration (EC50) came out at 255 ± 5 nM. For the same compound, at Pgp (LCC6MDR cells), the Therapeutic index is reported as 77.3 and the “RF (Relative Fold), cpd at 0.5 μM” value is “(31.2)”. Besides, the concentration for half-maximal inhibition (IC50) at 72 h in data set [3] is more than 100 µM.

As to `O=c1cc(-c2ccc(OCCOCCN(CCOCCOc3ccc(-c4cc(=O)c5ccccc5o4)cc3)Cc3ccc(-c4ccccc4)cc3)cc2)oc2ccccc12` [Compound 57, 1,13-Bis[4′-(4H-chromen-4-on-2-yl)phenyl]-7-(4-phenylbenzyl)-1,4,10,13-tetraoxa-7-azamidecane], the melting point lay within 106 to 107 °C. The compound further had an IC50 at 72 h in data set [1] of more than 62 µM. In addition, in data set [2], the IC50 at 72 h was more than 69 µM. For the same compound, the EC50 on Pgp (LCC6MDR cells) (Daunorubicin) came to 76 ± 14 nM. Moreover, the EC50 at Pgp (LCC6MDR cells) (Doxorubicin) is 94 ± 1 nM. Also, the concentration giving a half-maximal response (EC50) on Pgp (LCC6MDR cells) (Mitoxantrone) was 65 ± 19 nM. For the same compound, the EC50 at Pgp (LCC6MDR cells) (Paclitaxel) was 72 ± 21 nM. Further, the EC50 at Pgp (LCC6MDR cells) (Vinblasinte, vinblastine) is 38 ± 10 nM. Moreover, the concentration giving a half-maximal response (EC50) at Pgp (LCC6MDR cells) (Vincristine) came out at 83 ± 12 nM. On Pgp (LCC6MDR cells), the Therapeutic index was more than 958.3; the “RF (Relative Fold), cpd at 0.5 μM” value is reported as “(102.1)”; the “RF (Relative Fold), cpd at 1 μM” value is “(117.8)”. The same compound came in with a half-maximal inhibitory concentration (IC50) at 72 h in data set [3] of more than 99 µM.

Compound `O=c1cc(-c2ccc(OCCOCCN(CCOCCOc3ccc(-c4cc(=O)c5ccccc5o4)cc3)Cc3ccc4c(c3)OCO4)cc2)oc2ccccc12` [Compound 42e, 1,13-Bis[4′-(4H-chromen-4-on-2-yl)phenyl]-7-(5-piperonyl)-1,4,10,13-tetraoxa-7-azamidecane] yielded a melting point of 69 to 70 °C. Moreover, the IC50 at 72 h in data set [1] is more than 100 µM. In data set [2], this compound came in with a 50% inhibitory concentration (IC50) at 72 h of more than 100 µM. Also, the 50% effective concentration (EC50) at Pgp (LCC6MDR cells) (Paclitaxel) worked out at 204 ± 20 nM. Besides, at Pgp (LCC6MDR cells), the Therapeutic index was more than 490.2; the “RF (Relative Fold), cpd at 0.5 μM” value was “(31.2)”; the “RF (Relative Fold), cpd at 1 μM” value is “(117.8)”. This compound showed an IC50 at 72 h in data set [3] of more than 100 µM.

`O=C(c1ccccc1)c1ccc(CN(CCOCCOc2ccc(-c3cc(=O)c4ccccc4o3)cc2)CCOCCOc2ccc(-c3cc(=O)c4ccccc4o3)cc2)cc1` [Compound 61, 1,13-Bis[4′-(4H-chromen-4-on-2-yl)phenyl]-7-(4-benzoylbenzyl)-1,4,10,13-tetraoxa-7-azamidecane] showed a melting point of 71 to 72 °C. The IC50 at 72 h in data set [1] was more than 100 µM. The compound further gave an IC50 at 72 h in data set [2] of more than 100 µM. Besides, on Pgp (LCC6MDR cells), the “RF (Relative Fold), cpd at 0.5 μM” value is “(1.9)” and the “RF (Relative Fold), cpd at 1 μM” value is “(30.0)”. In addition, the IC50 at 72 h in data set [3] is more than 91 µM.

`O=c1cc(-c2ccc(OCCOCCN(CCOCCOc3ccc(-c4cc(=O)c5ccccc5o4)cc3)Cc3ccc(Cl)cc3)cc2)oc2ccccc12` [Compound 49, 1,13-Bis[4′-(4H-chromen-4-on-2-yl)phenyl]-7-(4-chlorobenzyl)-1,4,10,13-tetraoxa-7-azamidecane] came in with a melting point of 81 to 82 °C. This compound also registered an IC50 at 72 h in data set [1] of more than 100 µM. Also, in data set [2], the half-inhibitory concentration (IC50) at 72 h is more than 78 µM. Further, on Pgp (LCC6MDR cells) (Paclitaxel), the EC50 was found to be 177 ± 14 nM. In addition, at Pgp (LCC6MDR cells), the Therapeutic index is on record as more than 440.7; the “RF (Relative Fold), cpd at 0.5 μM” value is listed as “(41.4)”; the “RF (Relative Fold), cpd at 1 μM” value is given as “(95.7)”. This compound came in with an IC50 at 72 h in data set [3] of more than 100 µM.
